Reference: paper PMC9880260, “Identification of compounds with activity against Trypanosoma cruzi within a collection of synthetic nucleoside analogs” (Frontiers in Cellular and Infection Microbiology, 2023)

Columns and labels:
HepG2 cells = assay: HepG2 cell toxicity assay (Alamar Blue, 48 h); assay type: cell-based, human
Protocol: (§1) Compounds were added to the plates and diluted following a dose-response pattern in assay medium. Vero cells were prepared in assay medium and added to each well as described ([Martinez-Peinado et al., 2020]). Each test plate contained its own negative (untreated cells) and positive (medium alone) control wells ([Martinez-Peinado et al., 2020]). BNZ and digitoxin (DTX) were included as non-toxicity and toxicity drug controls, respectively. Parallel assays with HepG2 cells were carried out to evaluate the toxicity of compounds in a human cell line as described ([Martinez-Peinado et al., 2020]). […] Vitality was measured with Alamar Blue (Thermo Fischer Scientific, Waltham, USA) to detect metabolically active (live) cells by fluorimetry. For this, a PBS dilution with 10% Alamar Blue was added to each well and the plates were incubated at 37°C for 6 h. Readout was performed on a TECAN Infinite M Nano+ reader (Tecan Trading AG, Männedorf, Switzerland) using i-control™ 2.0 software and setting excitation at 530 nm and emission at 590 nm.

T. cruzi amastigotes = assay: Amastigotes growth inhibition assay (infected Vero cells, 72 h, CPRG); conditions: for IC50: Trypanosoma cruzi, Vero, 72 h, read-out: [IC50] Anti-amastigote assay; for activity against amastigotes: active = IC50 ≤ 10× that of BNZ
Protocol: Upon washing the monolayers with PBS, purified trypomastigotes were added at a concentration of 1×10^7 trypomastigotes per flask (MOI = 1) and infected monolayers were kept in assay medium. After 18 h, infected Vero cells were PBS-washed and trypsin-detached, diluted at a concentration of 5×10^5 cells per ml in assay medium and 100 μl of that solution (50000 cells) added to 96-well test plates already containing the compounds.
(§2) Half maximum inhibitory (IC50) and half maximum toxicity concentration (TC50) values were determined with GraphPad Prism 7 software (version 7.00, San Diego, USA) using a nonlinear regression analysis model defined by equation 2:
(§3) Values were expressed as means with standard deviations (SD) of at least three independent experiments.

[1] = system: T. cruzi Tulahuen parasites; conditions: Vero TC50 / anti-T. cruzi IC50
Protocol: Trypomastigotes were isolated for the maintenance of the cycle and for the performance of the antiparasitic assays, respectively. Briefly, medium containing free swimming trypomastigotes was harvested in falcon tubes and centrifuged at 2,500 rpm for 10 minutes to remove cell debris. […] In the second case, another centrifugation was made to get rid of any PR remnants that may interfere in the assay readout.
Compounds were added to a flat 96-well cell culture plate (SPL Life Sciences, Pocheon-si, Korea) and diluted in assay medium following a 1:2 dose-response pattern. Vero cells were detached, washed and counted using a Neubauer chamber. On the other side, T. cruzi trypomastigotes were collected and counted. Then, 50,000 trypomastigotes and 50,000 Vero cells were simultaneously added to each well to reach a final volume of 200 μl per well (multiplicity of infection or MOI = 1). […] Note that trypomastigotes are unable to multiply and therefore they mark the enzymatic time zero. In addition to those controls, BNZ-treated wells were also included as a positive control of drug inhibition. Plates were incubated at 37°C for 96 h. After that, chlorophenol red-β-D-galactopyranoside (CPRG) substrate was added to detect the enzymatic activity of β-galactosidase expressed by the parasites. […] Absorbance was measured at 590 nm in an Epoch Gene5 Microplate Spectrophotometer (BioTek, Winooski, USA).
as §2, §3

Vero cells = assay type: cell-based; conditions: green monkey, 96 h
Protocol: as §1

[2] = Microscopy-based observation of compound dissolution / crystals in assay medium; assay type: physicochemical; conditions: for solubility: compounds at 750 μM, read-out: solubility issues / crystals formed during the assays
Protocol: Among the eight compounds selected, five carried the benzene ring group at position C8 illustrating the relevance of this substituent. Family by family, L4-0c was the only selected from L4-0.
Figure S3. Crystals of the compounds [750 μM] formed during the assays. The eight compounds selected through the discovery cascade are shown in bold. Besides, those indicated with an asterisk too had solubility issues. BNZ is shown at 400 μM.

SMILES: Clc1ccccc1CNc1ncnc2c1nc(-c1ccccc1)n2Cc1ccccc1Cl [Compound L4-9c]
- [TC50] HepG2 assay (HepG2 cells; human): >10,000 μM
- IC50 (T. cruzi amastigotes): 28.7 ± 2.34 µM
- activity against amastigotes (T. cruzi amastigotes): inactive
- SI Vero cells assays (TC50/IC50) [1]: > 10,000
- [TC50] Vero cells assays (Vero cells): > 10,000 μM

SMILES: Clc1ccc(CNc2ncnc3c2ncn3Cc2ccc(Cl)cc2)cc1 [Compound L4-4a]
- [TC50] HepG2 assay (HepG2 cells; human): > 1,000 μM
- IC50 (T. cruzi amastigotes): 9.36 ± 0.4 µM
- activity against amastigotes (T. cruzi amastigotes): active
- [TC50] Vero cells assays (Vero cells): > 1,000 μM

SMILES: Cc1nc2c(NCc3ccccc3)ncnc2n1Cc1ccccc1 [Compound L4-0b]
- SI Vero cells assays (TC50/IC50) [1]: 4.75
- [TC50] Vero cells assays (Vero cells): 68.16 ± 12.00 µM

SMILES: Cc1nc2c(NCc3cccc(Cl)c3)ncnc2n1Cc1cccc(Cl)c1 [Compound L4-8b]
- [TC50] HepG2 assay (HepG2 cells; human): 17.77 ± 0.71 µM
- SI Vero cells assays (TC50/IC50) [1]: 11.65
- [TC50] Vero cells assays (Vero cells): 60.11 ± 8.50 µM

SMILES: Clc1cccc(CNc2ncnc3c2ncn3Cc2cccc(Cl)c2)c1 [Compound L4-8a]
- [TC50] HepG2 assay (HepG2 cells; human): 35.21 ± 5.52 µM
- [TC50] Vero cells assays (Vero cells): 346.30 ± 189.30 µM

SMILES: c1ccc(CCNc2ncnc3c2ncn3CCc2ccccc2)cc1 [Compound L4-1a]
- SI Vero cells assays (TC50/IC50) [1]: 2.59
- [TC50] Vero cells assays (Vero cells): 39.26 ± 4.81 µM

SMILES: Clc1cccc(CNc2ncnc3c2nc(-c2ccccc2)n3Cc2cccc(Cl)c2)c1 [Compound L4-8c, N,9-bis(3-chlorobenzyl)-8-phenyl-9H-purin-6-amine]
- [TC50] HepG2 assay (HepG2 cells; human): > 1,000 μM
- IC50 (T. cruzi amastigotes): 7.61 ± 0.36 µM
- activity against amastigotes (T. cruzi amastigotes): active
- dissolution in assay medium (microscopy-based observation) [2]: presence of crystals
- solubility [2]: < 750 µM
- [TC50] Vero cells assays (Vero cells): > 1,000 μM

SMILES: Clc1ccc(CNc2ncnc3c2nc(-c2ccccc2)n3Cc2ccc(Cl)cc2)cc1 [Compound L4-4c]
- [TC50] HepG2 assay (HepG2 cells; human): 164.80 ± 38.82 µM
- IC50 (T. cruzi amastigotes): 4.2 ± 0.21 µM
- activity against amastigotes (T. cruzi amastigotes): active
- [TC50] Vero cells assays (Vero cells): 187.50 ± 54.14 µM

SMILES: COc1ccc(CNc2ncnc3c2nc(-c2ccccc2)n3Cc2ccc(OC)cc2)cc1 [Compound L4-2c]
- [TC50] HepG2 assay (HepG2 cells; human): > 10,000 μM
- IC50 (T. cruzi amastigotes): 6.19 ± 0.21 µM
- activity against amastigotes (T. cruzi amastigotes): active
- [TC50] Vero cells assays (Vero cells): > 1,000 μM

SMILES: Cc1nc2c(NCCc3ccccc3)ncnc2n1CCc1ccccc1 [Compound L4-1b]
- SI Vero cells assays (TC50/IC50) [1]: 3.52
- [TC50] Vero cells assays (Vero cells): 55.91 ± 5.64 µM

SMILES: c1ccc(CNc2ncnc3c2nc(-c2ccccc2)n3Cc2ccccc2)cc1 [Compound L4-0c]
- [TC50] HepG2 assay (HepG2 cells; human): > 10,000 μM
- IC50 (T. cruzi amastigotes): 11.2 ± 0.35 µM
- activity against amastigotes (T. cruzi amastigotes): active
- dissolution in assay medium (microscopy-based observation) [2]: failed to be completely dissolved
- [TC50] Vero cells assays (Vero cells): > 1,000 μM

SMILES: Cc1nc2c(NCc3ccc(Cl)cc3)ncnc2n1Cc1ccc(Cl)cc1 [Compound L4-4b]
- SI Vero cells assays (TC50/IC50) [1]: 5.17
- [TC50] Vero cells assays (Vero cells): 27.01 ± 2.00 µM

SMILES: Cc1nc2c(NCc3ccccc3Cl)ncnc2n1Cc1ccccc1Cl [Compound L4-9b]
- [TC50] HepG2 assay (HepG2 cells; human): 372.20 ± 51.70 µM
- IC50 (T. cruzi amastigotes): 8.87 ± 0.42 µM
- activity against amastigotes (T. cruzi amastigotes): active
- dissolution in assay medium (microscopy-based observation) [2]: presence of crystals
- solubility [2]: < 750 µM
- [TC50] Vero cells assays (Vero cells): > 1,000 μM

SMILES: c1ccc(CCNc2ncnc3c2nc(-c2ccccc2)n3CCc2ccccc2)cc1 [Compound L4-1c]
- [TC50] HepG2 assay (HepG2 cells; human): 53.96 ± 12.33 µM
- IC50 (T. cruzi amastigotes): 6.21 ± 0.29 µM
- activity against amastigotes (T. cruzi amastigotes): active
- [TC50] Vero cells assays (Vero cells): > 1,000 μM

SMILES: C[C@H]1O[C@@H](O[C@H]2[C@@H](O)C[C@H](O[C@H]3[C@@H](O)C[C@H](O[C@H]4CC[C@@]5(C)[C@H](CC[C@@H]6[C@@H]5CC[C@]5(C)[C@@H](C7=CC(=O)OC7)CC[C@]65O)C4)O[C@@H]3C)O[C@@H]2C)C[C@H](O)[C@@H]1O [DTX, digitoxin, reference compound]
- [TC50] HepG2 assay (HepG2 cells; HepG2 cells, mean ± SD): 1.29 ± 0.40 µM

SMILES: Brc1ccc(CCNc2ncnc3c2nc(-c2ccccc2)n3CCc2ccc(Br)cc2)cc1 [Compound L4-7c]
- [TC50] HepG2 assay (HepG2 cells; human): 550.60 ± 130.00 µM
- IC50 (T. cruzi amastigotes): 7.51 ± 0.79 µM
- activity against amastigotes (T. cruzi amastigotes): active
- [TC50] Vero cells assays (Vero cells): 909.20 ± 564.00 µM

SMILES: O=C(Cn1ccnc1[N+](=O)[O-])NCc1ccccc1 [BNZ, benznidazole, reference compound]
- [TC50] HepG2 assay (HepG2 cells; human): 490.90 ± 267.10 µM
- IC50 (T. cruzi amastigotes): 1.47 ± 0.08 µM
- SI Vero cells assays (TC50/IC50) [1]: 81.36
- [TC50] Vero cells assays (Vero cells): 196.90 ± 30.67 µM
